From US9527807B2, “Sulfonamide derivative and use thereof” (Takeda Pharmaceutical Company Limited, priority 2011, dated 2016)

molecular target: T1, AMPA receptor (human GluR1 flip/stargazin expressed in CHO-K1 cells) (Homo sapiens, UniProt P42261); test: AMPA receptor function enhancing activity using calcium influx as index; type: cell-based; settings: change in fluorescence level in 3 min, 100% = 3 mM glutamic acid + 300 μM cyclothiazide, 0% = 3 mM glutamic acid only
T1 construct: expressed in transfected cells; host or cells: CHO-K1
Text: Human GluR1 flip cDNA was amplified by PCR using forward primer […] (SEQ ID NO: 1) and reverse primer […] (SEQ ID NO: 2) artificially synthesized using human brain-derived cDNA (BD Bio science) as a template. The amplified product was digested with restriction enzymes EcoRI, NotI (TAKARA SHUZO CO. LTD.), and incorporated into the same site of pcDNA3.1(+) (Invitrogen) to construct pcDNA3.1(+)/human GluR1 flip gene. Human stargazin cDNA was amplified by PCR using forward primer […] (SEQ ID NO: 3) and reverse primer. […] (SEQ ID NO: 4) artificially synthesized using human hippocampus cDNA as a template. The amplified product was digested with restriction enzymes XhoI, BamHI (TAKARA SHUZO CO. LTD.), and incorporated into the same site of pcDNA3.1(−) (Invitrogen) to construct pcDNA3.1 Zeo(−)/human stargazin gene.
(2) Construction of GluR1 Flip/Stargazin Expressing Cell
CHO-K1 cells passaged in a culture medium (Ham's F12 medium (Invitrogen) added with 10% inactivated fetal bovine serum (Morgate) and penicillin, streptomycin (Invitrogen)) were detached with 0.05% trypsin, 0.53 mM EDTA (Invitrogen) diluted with D-PBS(−). The detached cells were suspended in a culture medium, and recovered by a centrifugation operation at 1,000 rpm. The recovered cells were suspended again in D-PBS(−), and added to a 0.4 cm electroporation cuvette (BioRad). pcDNA3.1(+)/human GluR1 flip gene (5 μg) and pcDNA3.1 Zeo(−)/human stargazin gene (15 μg) were added, and the mixture was introduced into CHO-K1 cells using Gene Pulser II (BioRad) under the conditions of 950 μFd, […]. The introduced cells were cultured overnight in a culture medium and, the next day, plated in a 96 well plate at 250 cells/well using a selection medium (culture medium added with Zeocin (Invitrogen) to 250 μg/mL). Clones showing drug resistance were selected, and GluR1 flip/stargazin expressing clones were selected by an assay method using calcium influx as an index as shown below.
(3) Measurement Method of AMPA Receptor Function Enhancing Activity of Compound Using Calcium Influx as Index
CHO-K1/GluR1 flip/stargazin expressing cells were plated on a 384 well black transparent bottom plate (FMAT4307723) at 0.5×10^4 cells/well, and cultured in a 37° C., CO2 incubator (SANYO Electric Co., Ltd.) for 2 days. The medium in the cell plate was removed, and a calcium indicator (Calcium 4 Assay Kit, Molecular. Devices) containing 1.25 mM probenecid (Invitrogen) was added at 25 μL/well and the well was left standing in 37° C., CO2 incubator for 1 hr. The cell plate was set in FLITRtetra (Molecular Devices), a mixture (12.5 μL) of 9 mM glutamic acid diluted with assay buffer B (HBSS (Invitrogen), 0.1% BSA, 10 mM HEPES) and a test compound was added, and the amount of change in fluorescence level in 3 min was measured. In the definition here, the amount of change in fluorescence level of well added with glutamic acid at final concentration 3 mM and 300 μM cyclothiazide (TOCRIS) is 100%, the amount of change in fluorescence level of well added only with glutamic acid at final concentration 3 mM is 0%, and the compound activity was calculated according to the following formula. activity (%)=(X−C)/(T−C)×100 T: amount of change in fluorescence level of well added with glutamic acid at final concentration 3 mM and 300 μM cyclothiazide C: amount of change in fluorescence level of well added only with glutamic acid at final concentration 3 mM X: amount of change in fluorescence level of well added with to test compound

T1 sequence (P42261 19-906 isoform P42261-2 limits assumed): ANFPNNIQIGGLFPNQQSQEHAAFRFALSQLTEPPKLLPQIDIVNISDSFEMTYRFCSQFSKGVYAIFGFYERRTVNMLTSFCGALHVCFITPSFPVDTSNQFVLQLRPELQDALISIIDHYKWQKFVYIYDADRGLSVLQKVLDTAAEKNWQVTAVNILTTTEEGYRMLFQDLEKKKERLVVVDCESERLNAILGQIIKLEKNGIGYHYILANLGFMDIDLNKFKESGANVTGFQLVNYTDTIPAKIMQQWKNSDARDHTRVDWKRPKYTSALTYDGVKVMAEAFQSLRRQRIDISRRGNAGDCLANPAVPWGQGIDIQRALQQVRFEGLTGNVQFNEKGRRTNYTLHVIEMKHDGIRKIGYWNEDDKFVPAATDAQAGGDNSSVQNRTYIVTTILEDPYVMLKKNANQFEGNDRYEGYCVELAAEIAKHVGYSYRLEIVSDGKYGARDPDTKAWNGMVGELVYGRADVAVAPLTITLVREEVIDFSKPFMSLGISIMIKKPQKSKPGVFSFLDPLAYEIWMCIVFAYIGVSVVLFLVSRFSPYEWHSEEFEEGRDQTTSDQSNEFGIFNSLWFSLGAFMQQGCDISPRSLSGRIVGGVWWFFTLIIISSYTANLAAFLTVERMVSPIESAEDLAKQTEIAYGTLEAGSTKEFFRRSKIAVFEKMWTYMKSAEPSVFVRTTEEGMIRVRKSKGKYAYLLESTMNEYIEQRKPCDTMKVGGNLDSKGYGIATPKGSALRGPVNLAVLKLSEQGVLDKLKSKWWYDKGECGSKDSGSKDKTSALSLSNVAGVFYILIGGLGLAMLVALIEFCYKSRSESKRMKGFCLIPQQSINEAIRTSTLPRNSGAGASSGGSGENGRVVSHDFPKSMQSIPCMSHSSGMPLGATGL
T1 sequence (Q9Y698 whole entry partner): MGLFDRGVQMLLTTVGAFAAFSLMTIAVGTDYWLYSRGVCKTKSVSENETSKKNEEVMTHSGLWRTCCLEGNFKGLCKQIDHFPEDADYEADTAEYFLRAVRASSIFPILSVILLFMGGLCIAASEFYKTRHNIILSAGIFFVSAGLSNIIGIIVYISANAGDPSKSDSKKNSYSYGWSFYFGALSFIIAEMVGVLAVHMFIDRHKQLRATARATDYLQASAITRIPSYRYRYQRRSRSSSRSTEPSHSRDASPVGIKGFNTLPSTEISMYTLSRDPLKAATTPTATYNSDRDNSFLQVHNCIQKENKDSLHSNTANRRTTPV

| SMILES | activity (%) |
| --- | --- |
| CS(=O)(=O)N[C@H]1C[C@H]2CC[C@H](O2)[C@@H]1COc1ccc(-c2ccc(C#N)cn2)cc1 (mixture of isomers) [Example 508, N-((1S,2SR,3SR,5R)-2-((4-(5-cyanopyridin-2-yl)phenoxy)methyl)-8-oxabicyclo[3.2.1]oct-3-yl)methanesulfonamide] | 38 |
| CCS(=O)(=O)N[C@H]1CCCO[C@@H]1COc1ccc(C2CC2)cc1 (racemic) [Example 4, 1,5-anhydro-6-O-(4-cyclopropylphenyl)-2,3,4-trideoxy-4-[(ethylsulfonyl)amino]-DL-erythrohexitol] | 86 |
| CS(=O)(=O)N[C@H]1CCCO[C@@H]1COc1ccc(C2CC2)cc1 (racemic) [Example 5, 1,5-anhydro-6-O-(4-cyclopropylphenyl)-2,3,4-trideoxy-4-[(methylsulfonyl)amino]-DL-erythrohexitol] | 78 |
| CS(=O)(=O)N[C@H]1CCCO[C@@H]1COc1ccc(-c2ccc(C#N)cn2)cc1 (racemic) [Example 164, 1,5-anhydro-6-O-[4-(5-cyanopyridin-2-yl)phenyl]-2,3,4-trideoxy-4-[(methylsulfonyl)amino]-DL-erythro-hexitol] | 76 |
| CCS(=O)(=O)N[C@H]1CCCO[C@@H]1COc1ccc(-c2ncc(C)s2)cc1 (racemic) [Example 181, 1,5-anhydro-2,3,4-trideoxy-4-[(ethylsulfonyl)amino]-6-O-[4-(5-methyl-1,3-thiazol-2-yl)phenyl]-DL-erythro-hexitol] | 77 |
| Cc1cnc(-c2ccc(OC[C@H]3OCCC[C@@H]3NS(=O)(=O)C3CC3)cc2)s1 (racemic) [Example 192, 1,5-anhydro-4-[(cyclopropylsulfonyl)amino]-2,3,4-trideoxy-6-O-[4-(5-methyl-1,3-thiazol-2-yl)phenyl]-DL-erythro-hexitol] | 74 |
| O=S(=O)(N[C@H]1CCOC[C@@H]1COc1ccc(-c2ccc(F)cn2)c(F)c1)C1CC1 (racemic) [Example 243, N-[(3RS,4SR)-3-{[3-fluoro-4-(5-fluoropyridin-2-yl)phenoxy]methyl}tetrahydro-2H-pyran-4-yl]cyclopropanesulfonamide] | 96 |
| CS(=O)(=O)N[C@H]1CCOC[C@@H]1COc1ccc(-c2ccc(Cl)cn2)c(F)c1 (racemic) [Example 244, N-[(3RS,4SR)-3-{[4-(5-chloropyridin-2-yl)-3-fluorophenoxy]methyl}tetrahydro-2H-pyran-4-yl]methanesulfonamide] | 96 |
| CS(=O)(=O)N[C@H]1CCC(F)(F)C[C@@H]1COc1ccc(-c2ccc(C#N)cn2)cc1 (racemic) [Example 260, N-[(1SR,2SR)-2-{[4-(5-cyanopyridin-2-yl)phenoxy]methyl}-4,4-difluorocyclohexyl]methanesulfonamide] | 82 |
| CCS(=O)(=O)N[C@H]1CCOC[C@@H]1COc1ccc(-c2ncc(Cl)s2)cc1 (racemic) [Example 261, N-[(3RS,4SR)-3-{[4-(5-chloro-1,3-thiazol-2-yl)phenoxy]methyl}tetrahydro-2H-pyran-4-yl]ethanesulfonamide] | 92 |
| O=S(=O)(N[C@H]1CCOC[C@@H]1COc1ccc(-c2ncc(Cl)cc2F)cc1)C1CC1 (racemic) [Example 262, N-[(3RS,4SR)-3-{[4-(5-chloro-3-fluoropyridin-2-yl)phenoxy]methyl}tetrahydro-2H-pyran-4-yl]cyclopropanesulfonamide] | 89 |
| Cc1nc(-c2ccc(OC[C@H]3COCC[C@@H]3NS(C)(=O)=O)cc2)cs1 (racemic) [Example 263, N-[(3RS,4SR)-3-{[4-(2-methyl-1,3-thiazol-4-yl)phenoxy]methyl}tetrahydro-2H-pyran-4-yl]methanesulfonamide] | 66 |
| CS(=O)(=O)N[C@H]1CCOC[C@@H]1COc1ccc(-n2cc(Cl)cn2)cc1 (racemic) [Example 270, N-[(3RS,4SR)-3-{[4-(4-chloro-1H-pyrazol-1-yl)phenoxy]methyl}tetrahydro-2H-pyran-4-yl]methanesulfonamide] | 74 |
| CN(C)S(=O)(=O)N[C@H]1CCOC[C@@H]1COc1ccc(-n2cc(Cl)cn2)cc1 (racemic) [Example 279, N′-[(3RS,4SR)-3-{[4-(4-chloro-1H-pyrazol-1-yl)phenoxy]methyl}tetrahydro-2H-pyran-4-yl]-N,N-dimethylsulfamide] | 79 |
| Cc1cnn(-c2ccc(OC[C@H]3COCC[C@@H]3NS(=O)(=O)C(F)(F)F)cc2)c1 (racemic) [Example 280, 1,1,1-trifluoro-N-[(3RS,4SR)-3-{[4-(4-methyl-1H-pyrazol-1-yl)phenoxy]methyl}tetrahydro-2H-pyran-4-yl]methanesulfonamide] | 108 |
| Cc1cc(-c2ccc(OC[C@H]3COCC[C@@H]3NS(C)(=O)=O)cc2)nn1C (racemic) [Example 281, N-[(3RS,4SR)-3-{[4-(1,5-dimethyl-1H-pyrazol-3-yl)phenoxy]methyl}tetrahydro-2H-pyran-4-yl]methanesulfonamide] | 64 |
| CCS(=O)(=O)N[C@H]1CCOC[C@@H]1COc1ccc(-c2cccnc2C)cc1 (racemic) [Example 322, N-[(3RS,4SR)-3-{[4-(2-methylpyridin-3-yl)phenoxy]methyl}tetrahydro-2H-pyran-4-yl]ethanesulfonamide] | 91 |
| Cc1cnc(-c2ccc(OC[C@H]3COCC[C@@H]3NS(C)(=O)=O)cc2)s1 (racemic) [Example 333, N-[(3RS,4SR)-3-{[4-(5-methyl-1,3-thiazol-2-yl)phenoxy]methyl}tetrahydro-2H-pyran-4-yl]methanesulfonamide] | 93 |
| CCS(=O)(=O)N[C@H]1CCOC[C@@H]1COc1ccc(-c2ccc(C(F)(F)F)cn2)cc1 (racemic) [Example 351, N-[(3RS,4SR)-3-({4-[5-(trifluoromethyl)pyridin-2-yl]phenoxy}methyl)tetrahydro-2H-pyran-4-yl]ethanesulfonamide rac] | 70 |
| O=S(=O)(N[C@H]1CCOC[C@@H]1COc1ccc(-c2ncc(F)cc2F)cc1)C1CC1 (racemic) [Example 362, N-[(3RS,4SR)-3-{[4-(3,5-difluoropyridin-2-yl)phenoxy]methyl}tetrahydro-2H-pyran-4-yl]cyclopropanesulfonamide] | 96 |
| CCS(=O)(=O)N[C@H]1CCOC[C@@H]1COc1ccc(-n2nccc2C)cc1 (racemic) [Example 431, N-[(3RS,4SR)-3-{[4-(5-methyl-1H-pyrazol-1-yl)phenoxy]methyl}tetrahydro-2H-pyran-4-yl]ethanesulfonamide] | 66 |
| CCS(=O)(=O)N[C@H]1CCOC[C@@H]1COc1ccc(-n2cc(Cl)cn2)c(F)c1 (racemic) [Example 489, N-[(3RS,4SR)-3-{[4-(4-chloro-1H-pyrazol-1-yl)-3-fluorophenoxy]methyl}tetrahydro-2H-pyran-4-yl]ethanesulfonamide] | 99 |
| CCS(=O)(=O)N[C@H]1CCN(C(C)=O)C[C@@H]1COc1ccc(OC(F)F)cc1 (relative stereo) [Example 1, trans-N-[1-acetyl-3-{[4-(difluoromethoxy)phenoxy]methyl}piperidin-4-yl]ethanesulfonamide] | 46 |
